Key:
Type in all cases: in vivo
[1] = tested on: barnyardgrass (Echinochloa crus-galli); test: Test B flooded paddy test; conditions: for Plant response rating, Flood, Barnyardgrass: 250 g ai/ha, flooded paddy test, visual rating on 0 to 100 scale (0 no effect, 100 complete control) after 13 to 15 days; for Plant response rating, Barnyardgrass: Flood (flooded paddy test), 13 to 15 days
In short: (§1)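 Seedlings reaching 2 leaves are flooded 3 cm deep; test material is delivered to that water, which stays at the same depth. Plants remain in a greenhouse 13–15 days and are then scored by eye versus controls from 0 to 100.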

[2] = tested on: ducksalad (Heteranthera limosa); test: Test B flooded paddy test; conditions: for Plant response rating, Flood, Ducksalad: 250 g ai/ha, flooded paddy test, visual rating on 0 to 100 scale (0 no effect, 100 complete control) after 13 to 15 days; for Plant response rating, Ducksalad: Flood (flooded paddy test), 13 to 15 days
In short: as §1

[3] = tested on: rice (Oryza sativa); test: Test B flooded paddy test; conditions: for Plant response rating, Flood, Rice: 250 g ai/ha, flooded paddy test, visual rating on 0 to 100 scale (0 no effect, 100 complete control) after 13 to 15 days; for Plant response rating, Rice: Flood (flooded paddy test), 13 to 15 days
In short: as §1

[4] = tested on: umbrella sedge (Cyperus difformis); test: Test B flooded paddy test; conditions: for Plant response rating, Flood, Sedge, Umbrella: 250 g ai/ha, flooded paddy test, visual rating on 0 to 100 scale (0 no effect, 100 complete control) after 13 to 15 days; for Plant response rating, Sedge, Umbrella: Flood (flooded paddy test), 13 to 15 days
In short: as §1

[5] = tested on: large crabgrass (Digitaria sanguinalis); test: Test A pre-/postemergence plant response; conditions: for Crabgrass, Large plant response rating: visual injury, 0 to 100 scale (0 no effect, 100 complete control), approx. ten days
In short: (§2)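 Seeds planted in loam soil/sand blend; test chemicals in non-phytotoxic solvent mixture with surfactant applied as directed soil spray preemergence and, concurrently, postemergence to plants 2–10 cm tall at one- to two-leaf stage. Greenhouse ~10 days; visual injury vs untreated controls, 0 (no effect) to 100 (complete control).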

[6] = tested on: barnyardgrass (Echinochloa crus-galli); test: Test A pre-/postemergence plant response; conditions: for Barnyardgrass plant response rating: visual injury, 0 to 100 scale (0 no effect, 100 complete control), approx. ten days
In short: as §2

[7] = tested on: morningglory (Ipomoea spp.); test: Test A pre-/postemergence plant response; conditions: for Morningglory plant response rating: visual injury, 0 to 100 scale (0 no effect, 100 complete control), approx. ten days
In short: as §2

[8] = tested on: corn (Zea mays); test: Test A pre-/postemergence plant response; conditions: for Corn plant response rating: visual injury, 0 to 100 scale (0 no effect, 100 complete control), approx. ten days
In short: as §2

[9] = tested on: velvetleaf (Abutilon theophrasti); test: Test A pre-/postemergence plant response; conditions: for Velvetleaf plant response rating: visual injury, 0 to 100 scale (0 no effect, 100 complete control), approx. ten days
In short: as §2

[10] = tested on: pigweed (Amaranthus retroflexus); test: Test A pre-/postemergence plant response; conditions: for Pigweed plant response rating: visual injury, 0 to 100 scale (0 no effect, 100 complete control), approx. ten days
In short: as §2

[11] = tested on: giant foxtail (Setaria faberii); test: Test A pre-/postemergence plant response; conditions: for Foxtail, Giant plant response rating: visual injury, 0 to 100 scale (0 no effect, 100 complete control), approx. ten days
In short: as §2

[12] = tested on: wheat (Triticum aestivum); test: Test A pre-/postemergence plant response; conditions: for Wheat plant response rating: visual injury, 0 to 100 scale (0 no effect, 100 complete control), approx. ten days
In short: as §2

[13] = 62 g ai/ha, scale of 0 to 100 where 0 is no effect and 100 is complete control
[14] = Postemergence, 125 g ai/ha, 0 to 100 scale where 0 is no effect and 100 is complete control
[15] = Preemergence, 125 g ai/ha, 0 to 100 scale, 0 = no effect, 100 = complete control
[16] = Preemergence, 500 g ai/ha, 0 to 100 scale, 0 = no effect, 100 = complete control
[17] = 125 g ai/ha, scale 0 to 100, 0 is no effect, 100 is complete control
[18] = Flood, 31 g ai/ha, scale 0 to 100 (0 no effect, 100 complete control)

Cc1c(F)cccc1-n1c(-c2ccccc2)ncc(C(=O)C2=C(O)C3CCC(C3)C2=O)c1=O (stereo not drawn) [Compound 234]
Plant response rating, Flood, Barnyardgrass [1]: 0
Plant response rating, Barnyardgrass [1, 13]: 0
Plant response rating, Flood, Ducksalad [2]: 70
Plant response rating, Ducksalad [2, 13]: 20
Plant response rating, Flood, Rice [3]: 0
Plant response rating, Rice [3, 13]: 0
Plant response rating, Flood, Sedge, Umbrella [4]: 40
Plant response rating, Sedge, Umbrella [4, 13]: 0
Plant response rating, Crabgrass, Large [5, 14]: 40
Crabgrass, Large plant response rating ([5]; Postemergence, 500 g ai/ha): 90
Plant response rating, Crabgrass, Large [5, 15]: 60
Plant response rating, Crabgrass, Large [5, 16]: 90
Plant response rating, Barnyardgrass [6, 14]: 80
Barnyardgrass plant response rating ([6]; Postemergence, 500 g ai/ha): 100
Plant response rating, Barnyardgrass [6, 15]: 0
Plant response rating, Barnyardgrass [6, 16]: 80
Plant response rating, Morningglory [7, 14]: 100
Morningglory plant response rating ([7]; Postemergence, 500 g ai/ha): 100
Plant response rating, Morningglory [7, 16]: 10
Plant response rating, Corn [8, 14]: 20
Corn plant response rating ([8]; Postemergence, 500 g ai/ha): 50
Plant response rating, Corn [8, 15]: 0
Plant response rating, Corn [8, 16]: 20
Plant response rating, Velvetleaf [9, 14]: 100
Velvetleaf plant response rating ([9]; Postemergence, 500 g ai/ha): 100
Plant response rating, Velvetleaf [9, 15]: 30
Plant response rating, Velvetleaf [9, 16]: 90
Plant response rating, Pigweed [10, 14]: 70
Pigweed plant response rating ([10]; Postemergence, 500 g ai/ha): 90
Plant response rating, Pigweed [10, 15]: 50
Plant response rating, Pigweed [10, 16]: 60
Plant response rating, Foxtail, Giant [11, 14]: 70
Foxtail, Giant plant response rating ([11]; Postemergence, 500 g ai/ha): 90
Plant response rating, Foxtail, Giant [11, 15]: 10
Plant response rating, Foxtail, Giant [11, 16]: 60
Plant response rating, Wheat [12, 14]: 0
Wheat plant response rating ([12]; Postemergence, 500 g ai/ha): 20
Plant response rating, Wheat [12, 15]: 0
Plant response rating, Wheat [12, 16]: 20

O=C1CCCC(O)=C1C(=O)c1cnc(-c2ccccc2)n(CCC(F)(F)F)c1=O [Compound 207]
Plant response rating, Flood, Barnyardgrass [1]: 20
Plant response rating, Barnyardgrass [1, 13]: 0
Plant response rating, Barnyardgrass [1, 17]: 0
Barnyardgrass plant response rating [1, 18]: 0
Plant response rating, Flood, Ducksalad [2]: 50
Plant response rating, Ducksalad [2, 13]: 0
Plant response rating, Ducksalad [2, 17]: 0
Ducksalad plant response rating [2, 18]: 0
Plant response rating, Flood, Rice [3]: 15
Plant response rating, Rice [3, 13]: 0
Plant response rating, Rice [3, 17]: 15
Rice plant response rating [3, 18]: 0
Plant response rating, Flood, Sedge, Umbrella [4]: 70
Plant response rating, Sedge, Umbrella [4, 13]: 40
Plant response rating, Sedge, Umbrella [4, 17]: 60
Sedge, Umbrella plant response rating [4, 18]: 0
Plant response rating, Crabgrass, Large [5, 14]: 60
Crabgrass, Large plant response rating ([5]; Postemergence, 500 g ai/ha): 90
Plant response rating, Crabgrass, Large [5, 15]: 60
Plant response rating, Crabgrass, Large [5, 16]: 100
Plant response rating, Barnyardgrass [6, 14]: 60
Barnyardgrass plant response rating ([6]; Postemergence, 500 g ai/ha): 90
Plant response rating, Barnyardgrass [6, 15]: 10
Plant response rating, Barnyardgrass [6, 16]: 50
Plant response rating, Morningglory [7, 14]: 40
Morningglory plant response rating ([7]; Postemergence, 500 g ai/ha): 80
Plant response rating, Morningglory [7, 15]: 0
Plant response rating, Morningglory [7, 16]: 70
Plant response rating, Corn [8, 14]: 0
Corn plant response rating ([8]; Postemergence, 500 g ai/ha): 30
Plant response rating, Corn [8, 15]: 0
Plant response rating, Corn [8, 16]: 0
Plant response rating, Velvetleaf [9, 14]: 100
Velvetleaf plant response rating ([9]; Postemergence, 500 g ai/ha): 100
Plant response rating, Velvetleaf [9, 15]: 70
Plant response rating, Velvetleaf [9, 16]: 100
Plant response rating, Pigweed [10, 14]: 100
Pigweed plant response rating ([10]; Postemergence, 500 g ai/ha): 100
Plant response rating, Pigweed [10, 15]: 80
Plant response rating, Pigweed [10, 16]: 100
Plant response rating, Foxtail, Giant [11, 14]: 60
Foxtail, Giant plant response rating ([11]; Postemergence, 500 g ai/ha): 90
Plant response rating, Foxtail, Giant [11, 15]: 30
Plant response rating, Foxtail, Giant [11, 16]: 80
Plant response rating, Wheat [12, 14]: 0
Wheat plant response rating ([12]; Postemergence, 500 g ai/ha): 0
Plant response rating, Wheat [12, 15]: 0
Plant response rating, Wheat [12, 16]: 0
